# Reference: ChEMBL document CHEMBL1799932, “Antimalarial pyrido[1,2-a]benzimidazoles” (J Med Chem, 2011)
# How the values were obtained:
# Plasmodium berghei [1] = test: Antimalarial activity against GFP-transfected Plasmodium berghei strain ANKA infected in NMRI mouse assessed as reduction in parasitemia at 50 mg/kg, po administered as single dose measured on day 2 by FACS analysis; format: functional; design: scale not given: the % may be the effect or the level left
# Plasmodium berghei [2] = test: Antimalarial activity against GFP-transfected Plasmodium berghei strain ANKA infected in NMRI mouse assessed as increase in median survival time at 3 mg/kg, po administered as single dose for 4 days measured 24 hrs after last treatment (reference value: 6.5 days ); format: functional
# [3] = Metabolic stability in human liver microsomes assessed as degradation half life after 60 mins by LC-MS analysis; format: ADME, Microsome
# Plasmodium berghei [4] = test: Antimalarial activity against GFP-transfected Plasmodium berghei strain ANKA infected in NMRI mouse assessed as reduction in parasitemia at 25 mg/kg, po administered as single dose measured on day 3 by FACS analysis; format: functional; design: scale not given: the % may be the effect or the level left
# Rattus norvegicus [5] = test: Cmax in fasted Sprague-Dawley rat assessed as 1-(2-Ethylaminoethylamino)-3-[4-(trifluoromethyl)phenyl]- pyrido[1,2-a]benzimidazole-4-carbonitrile level at 20 mg/kg, po after 48 hrs by LC-MS analysis; format: ADME, organism-based; design: dose 20 mg/kg, route oral; details: in vivo
# Plasmodium berghei [6] = test: Antimalarial activity against GFP-transfected Plasmodium berghei strain ANKA infected in NMRI mouse assessed as increase in median survival time at 12.5 mg/kg, po administered as multiple dose for 4 days measured 24 hrs after last treatment (reference value: 6.5 days ); format: functional
# Plasmodium berghei [7] = test: Antimalarial activity against GFP-transfected Plasmodium berghei strain ANKA infected in NMRI mouse assessed as increase in mean survival time at 25 mg/kg, po administered as single dose (reference value: 5 days )
# Plasmodium berghei [8] = test: Antimalarial activity against GFP-transfected Plasmodium berghei strain ANKA infected in NMRI mouse assessed as increase in median survival time at 50 mg/kg, po administered as multiple dose for 4 days measured 24 hrs after last treatment (reference value: 6.5 days ); format: functional
# Plasmodium berghei [9] = test: Antimalarial activity against GFP-transfected Plasmodium berghei strain ANKA infected in NMRI mouse assessed as increase in median survival time at 25 mg/kg, po administered as multiple dose for 4 days measured 24 hrs after last treatment (reference value: 6.5 days ); format: functional
# Plasmodium berghei [10] = test: Antimalarial activity against GFP-transfected Plasmodium berghei strain ANKA infected in NMRI mouse assessed as reduction in parasitemia at 50 mg/kg, po administered as single dose measured on day 3 by FACS analysis; format: functional; design: scale not given: the % may be the effect or the level left
# [11] = Metabolic stability in mouse liver microsomes assessed as intrinsic clearance per mg protein after 60 mins by LC-MS analysis; format: ADME, Microsome
# Plasmodium berghei [12] = test: Antimalarial activity against GFP-transfected Plasmodium berghei strain ANKA infected in NMRI mouse assessed as reduction in parasitemia at 25 mg/kg, po administered as single dose measured on day 5 by FACS analysis; format: functional; design: scale not given: the % may be the effect or the level left
# Rattus norvegicus [13] = test: Apparent half life in fasted Sprague-Dawley rat assessed as 1-(2-Ethylaminoethylamino)-3-[4-(trifluoromethyl)phenyl]- pyrido[1,2-a]benzimidazole-4-carbonitrile level at 5 mg/kg, iv after 48 hrs by LC-MS analysis; format: ADME, organism-based; design: dose 5 mg/kg, route intravenous; details: in vivo
# Plasmodium berghei [14] = test: Antimalarial activity against GFP-transfected Plasmodium berghei strain ANKA infected in NMRI mouse assessed as reduction in parasitemia at 12.5 mg/kg, po administered as multiple dose for 4 days measured 24 hrs after last treatment; format: functional; design: scale not given: the % may be the effect or the level left
# Rattus norvegicus [15] = test: AUC (0 to tlast) in fasted Sprague-Dawley rat assessed as 1-(2-Ethylaminoethylamino)-3-[4-(trifluoromethyl)phenyl]- pyrido[1,2-a]benzimidazole-4-carbonitrile level at 5 mg/kg, iv after 48 hrs by LC-MS analysis; format: ADME, organism-based, Plasma; design: time < 48 hr, dose 5 mg/kg, route intravenous; details: in vivo
# Plasmodium berghei [16] = test: Antimalarial activity against GFP-transfected Plasmodium berghei strain ANKA infected in NMRI mouse assessed as reduction in parasitemia at 50 mg/kg, po administered as single dose measured on day 4 by FACS analysis; format: functional; design: scale not given: the % may be the effect or the level left
# Plasmodium berghei [17] = test: Antimalarial activity against GFP-transfected Plasmodium berghei strain ANKA infected in NMRI mouse assessed as reduction in parasitemia at 50 mg/kg, po administered as single dose measured on day 5 by FACS analysis; format: functional; design: scale not given: the % may be the effect or the level left
# Plasma [18] = test: Plasma protein binding in mouse assessed as 1-(2-Ethylaminoethylamino)-3-[4-(trifluoromethyl)phenyl]-pyrido[1,2-a]benzimidazole-4-carbonitrile at 5 mg/kg, iv after 48 hrs by LC-MS analysis; format: ADME, organism-based; design: dose 5 mg/kg, route intravenous; details: in vivo
# Rattus norvegicus [19] = test: Drug excretion in fasted Sprague-Dawley rat urine assessed as 1-(2-Ethylaminoethylamino)-3-[4-(trifluoromethyl)phenyl]- pyrido[1,2-a]benzimidazole-4-carbonitrile level at 20 mg/kg, po after 48 hrs by LC-MS analysis; format: ADME, organism-based; design: dose 20 mg/kg, route oral; details: in vivo
# Rattus norvegicus [20] = test: Drug excretion in fasted Sprague-Dawley rat urine assessed as 1-(2-Ethylaminoethylamino)-3-[4-(trifluoromethyl)phenyl]- pyrido[1,2-a]benzimidazole-4-carbonitrile level at 5 mg/kg, iv after 48 hrs by LC-MS analysis; format: ADME, organism-based; design: dose 5 mg/kg, route intravenous; details: in vivo
# Plasmodium berghei [21] = test: Antimalarial activity against GFP-transfected Plasmodium berghei strain ANKA infected in NMRI mouse assessed as increase in mean survival time at 50 mg/kg, po administered as single dose (reference value: 5 days )
# Plasmodium berghei [22] = test: Antimalarial activity against GFP-transfected Plasmodium berghei strain ANKA infected in NMRI mouse assessed as reduction in parasitemia at 3 mg/kg, po administered as multiple dose for 4 days measured 24 hrs after last treatment; format: functional; design: scale not given: the % may be the effect or the level left
# Plasmodium berghei [23] = test: Antimalarial activity against GFP-transfected Plasmodium berghei strain ANKA infected in NMRI mouse assessed as reduction in parasitemia at 25 mg/kg, po administered as single dose measured on day 4 by FACS analysis; format: functional; design: scale not given: the % may be the effect or the level left
# Plasmodium berghei [24] = test: Antimalarial activity against GFP-transfected Plasmodium berghei strain ANKA infected in NMRI mouse assessed as reduction in parasitemia at 6 mg/kg, po administered as single dose for 4 days measured 24 hrs after last treatment; format: functional; design: scale not given: the % may be the effect or the level left
# Plasmodium berghei [25] = test: Antimalarial activity against GFP-transfected Plasmodium berghei strain ANKA infected in NMRI mouse assessed as increase in median survival time at 6 mg/kg, po administered as multiple dose for 4 days measured 24 hrs after last treatment (reference value: 6.5 days ); format: functional
# Plasma [26] = test: Plasma protein binding in human assessed as 1-(2-Ethylaminoethylamino)-3-[4-(trifluoromethyl)phenyl]-pyrido[1,2-a]benzimidazole-4-carbonitrile at 5 mg/kg, iv after 48 hrs by LC-MS analysis; format: ADME, organism-based; design: dose 5 mg/kg, route intravenous; details: in vivo
# Plasmodium berghei [27] = test: Antimalarial activity against GFP-transfected Plasmodium berghei strain ANKA infected in NMRI mouse assessed as reduction in parasitemia at 25 mg/kg, po administered as single dose measured on day 2 by FACS analysis; format: functional; design: scale not given: the % may be the effect or the level left
# [28] = Metabolic stability in rat liver microsomes assessed as degradation half life after 60 mins by LC-MS analysis; format: ADME, Microsome
# Rattus norvegicus [29] = test: Tmax in fasted Sprague-Dawley rat assessed as 1-(2-Ethylaminoethylamino)-3-[4-(trifluoromethyl)phenyl]- pyrido[1,2-a]benzimidazole-4-carbonitrile level at 20 mg/kg, po after 48 hrs by LC-MS analysis; format: ADME, organism-based; design: dose 20 mg/kg, route oral; details: in vivo
# Rattus norvegicus [30] = test: Apparent volume of distribution in fasted Sprague-Dawley rat plasma assessed as 1-(2-Ethylaminoethylamino)-3-[4-(trifluoromethyl)phenyl]- pyrido[1,2-a]benzimidazole-4-carbonitrile level at 5 mg/kg, iv after 48 hrs by LC-MS analysis; details: in vivo
# [31] = Metabolic stability in rat liver microsomes assessed as intrinsic clearance per mg protein after 60 mins by LC-MS analysis; format: ADME, Microsome
# [32] = Metabolic stability in human liver microsomes assessed as intrinsic clearance per mg protein after 60 mins by LC-MS analysis; format: ADME, Microsome
# Plasmodium berghei [33] = test: Antimalarial activity against GFP-transfected Plasmodium berghei strain ANKA infected in NMRI mouse assessed as reduction in parasitemia at 50 mg/kg, po administered as multiple dose for 4 days measured 24 hrs after last treatment; format: functional; design: scale not given: the % may be the effect or the level left
# Plasmodium berghei [34] = test: Antimalarial activity against GFP-transfected Plasmodium berghei strain ANKA infected in NMRI mouse assessed as reduction in parasitemia at 25 mg/kg, po administered as single dose for 4 days measured 24 hrs after last treatment; format: functional; design: scale not given: the % may be the effect or the level left
# Rattus norvegicus [35] = test: AUC (0 to tlast) in fasted Sprague-Dawley rat assessed as 1-(2-Ethylaminoethylamino)-3-[4-(trifluoromethyl)phenyl]- pyrido[1,2-a]benzimidazole-4-carbonitrile level at 20 mg/kg, po after 48 hrs by LC-MS analysis; format: ADME, organism-based, Plasma; design: time < 48 hr, dose 20 mg/kg, route oral; details: in vivo
# [36] = Metabolic stability in mouse liver microsomes assessed as degradation half life after 60 mins by LC-MS analysis; format: ADME, Microsome
smiles,measurement,setting,value
CCNCCNc1cc(-c2ccc(C(F)(F)F)cc2)c(C#N)c2nc3ccccc3n12.Cl.Cl,Activity,Plasmodium berghei [1],30.78%
same,MSD,Plasmodium berghei [2],4 days
same,half-life,[3],2.28 h
same,Activity,Plasmodium berghei [4],55.45%
same,Cmax,Rattus norvegicus [5],950 nM
same,Activity,Plasmodium berghei [6],14 days
same,MSD,Plasmodium berghei [7],13.3 days
same,Activity,Plasmodium berghei [8],14 days
same,Activity,Plasmodium berghei [9],14.3 days
same,Activity,Plasmodium berghei [10],50.24%
same,microsomal CLint,[11],5.4 µL/min/mg
same,Activity,Plasmodium berghei [12],68.92%
same,t1/2(app),Rattus norvegicus [13],16.3 h
same,Activity,Plasmodium berghei [14],80.73%
same,AUClast,Rattus norvegicus [15],1000 µM·min
same,Activity,Plasmodium berghei [16],71.22%
same,Activity,Plasmodium berghei [17],79.79%
same,PPB,Plasma [18],95.3%
same,Activity,Rattus norvegicus [19],0.21%
same,Activity,Rattus norvegicus [20],1.13%
same,MSD,Plasmodium berghei [21],12.7 days
same,Activity,Plasmodium berghei [22],0%
same,Activity,Plasmodium berghei [23],62.25%
same,Activity,Plasmodium berghei [24],38.35%
same,Activity,Plasmodium berghei [25],7 days
same,PPB,Plasma [26],98.3%
same,Activity,Plasmodium berghei [27],23.51%
same,half-life,[28],4.74 h
same,Tmax,Rattus norvegicus [29],16 h
same,Vz,Rattus norvegicus [30],7.5 L/kg
same,microsomal CLint,[31],6.1 µL/min/mg
same,microsomal CLint,[32],12.7 µL/min/mg
same,Activity,Plasmodium berghei [33],95.56%
same,Activity,Plasmodium berghei [34],95.72%
same,AUClast,Rattus norvegicus [35],2076 µM·min
same,half-life,[36],5.35 h
